From paper PMC6027465, “Benzamide-4-Sulfonamides Are Effective Human Carbonic Anhydrase I, II, VII, and IX Inhibitors” (Metabolites, 2018)

Experiments:
MgCA = molecular target: T1, MgCA (Malassezia globosa, UniProt A8Q1N3); assay: biochemical
T1 construct: gene MGL_1814
T1 sequence (A8Q1N3 1-241): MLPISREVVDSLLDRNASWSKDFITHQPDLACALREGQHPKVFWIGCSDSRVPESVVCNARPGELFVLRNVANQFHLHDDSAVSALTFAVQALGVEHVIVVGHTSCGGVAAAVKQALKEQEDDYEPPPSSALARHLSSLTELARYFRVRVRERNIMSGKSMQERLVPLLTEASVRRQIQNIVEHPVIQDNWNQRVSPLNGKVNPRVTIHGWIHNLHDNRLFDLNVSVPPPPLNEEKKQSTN

VchCAγ = molecular target: T2, VchCAγ; type: biochemical, Vibrio cholerae; settings: CO2 […], […] TRIS pH […] Na2SO4, […] °C, […] min preincubation
T2 construct: gene VchCAgamma

hCA II = molecular target: T3, hCA II (Homo sapiens, UniProt P00918); type: biochemical
T3 construct: gene CA2; recombinant

VchCAβ = molecular target: T4, VchCAβ (Vibrio cholerae, UniProt A0A086SLX8); type: biochemical; settings: read-out: VchCAβ; CO2 […], […] TRIS pH […] Na2SO4, […] °C, […] min preincubation
T4 construct: gene can
T4 sequence (A0A086SLX8 1-222): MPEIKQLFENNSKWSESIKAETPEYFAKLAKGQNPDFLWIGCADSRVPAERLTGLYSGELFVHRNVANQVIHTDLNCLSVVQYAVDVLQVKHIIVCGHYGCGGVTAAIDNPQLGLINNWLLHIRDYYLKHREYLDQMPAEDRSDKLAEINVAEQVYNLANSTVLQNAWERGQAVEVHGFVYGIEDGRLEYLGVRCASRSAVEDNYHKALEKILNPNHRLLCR

hCA I = molecular target: T5, hCA I (Homo sapiens, UniProt P00915); type: biochemical
T5 construct: gene CA1; recombinant
T5 sequence (P00915 2-261): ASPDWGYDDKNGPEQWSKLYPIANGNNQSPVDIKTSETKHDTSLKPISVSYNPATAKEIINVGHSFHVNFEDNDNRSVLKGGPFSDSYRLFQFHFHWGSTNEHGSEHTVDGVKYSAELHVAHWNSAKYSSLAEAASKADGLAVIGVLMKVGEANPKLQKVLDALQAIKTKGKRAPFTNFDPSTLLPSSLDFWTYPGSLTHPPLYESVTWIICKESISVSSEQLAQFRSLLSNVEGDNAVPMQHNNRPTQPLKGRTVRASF

hCA VII = molecular target: T6, hCA VII (Homo sapiens, UniProt P43166); type: biochemical
T6 construct: gene CA7; recombinant
T6 sequence (P43166 whole entry): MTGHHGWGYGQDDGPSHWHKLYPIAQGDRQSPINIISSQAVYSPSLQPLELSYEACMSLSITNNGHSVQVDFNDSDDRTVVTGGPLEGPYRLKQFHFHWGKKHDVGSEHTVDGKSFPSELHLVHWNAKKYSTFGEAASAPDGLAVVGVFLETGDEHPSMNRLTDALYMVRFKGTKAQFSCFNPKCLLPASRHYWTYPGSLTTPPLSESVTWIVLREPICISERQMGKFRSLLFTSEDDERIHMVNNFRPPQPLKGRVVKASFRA

SMILES | Ki (MgCA) [nM] | Ki (VchCAγ) [nM] | Ki (hCA II) [nM] | Ki (VchCAβ) [nM] | Ki (hCA I) [nM] | Ki (hCA VII) [nM]
COC(=O)C(NC(=O)c1ccc(S(N)(=O)=O)cc1)C(C)C (racemic) [3f, Methyl (4-Sulfamoylbenzoyl)-DL-Valinate] | 5500 | 4460 | 4.5 | 8170 | 57.8 | 3.7
COC(=O)C(C)NC(=O)c1ccc(S(N)(=O)=O)cc1 (racemic) [3j, Methyl (4-Sulfamoylbenzoyl)-DL-Alaninate] | 87.3 | 271 | 6.1 | 412 | 85.3 | 3.7
CCNC(=O)c1ccc(S(N)(=O)=O)cc1 [3a, N-Ethyl-4-Sulfamoylbenzamide] | 7670 | 929 | 5.3 | 7080 | 334 | 26.7
CCCNC(=O)c1ccc(S(N)(=O)=O)cc1 [3b, N-Propyl-4-Sulfamoylbenzamide] | 3920 | 636 | 3.5 | 7680 | 8.2 | 0.4
C#CCNC(=O)c1ccc(S(N)(=O)=O)cc1 [3c, N-(Prop-2-Yn-1-Yl)-4-Sulfamoylbenzamide] | 5780 | 383 | – | 741 | – | 0.6
NS(=O)(=O)c1ccc(C(=O)N2CCOCC2)cc1 [3d, 4-(Morpholine-4-Carbonyl)Benzenesulfonamide] | 5880 | 693 | 6.2 | 8590 | 8.7 | 0.8
NS(=O)(=O)c1ccc(C(=O)N2CCCCC2)cc1 [3e, 4-(Piperidine-1-Carbonyl)Benzenesulfonamide] | 3980 | 453 | – | 749 | – | –
COC(=O)CC[C@@H](NC(=O)c1ccc(S(N)(=O)=O)cc1)C(=O)OC [3g, Dimethyl (4-Sulfamoylbenzoyl)-D-Glutamate] | 632 | 503 | 5.2 | 862 | 8.2 | 0.6
COC(=O)[C@H](CC(C)C)NC(=O)c1ccc(S(N)(=O)=O)cc1 [3h, Methyl (4-Sulfamoylbenzoyl)-L-Leucinate] | 763 | 891 | 3.7 | 719 | 5.6 | 0.4
COC(=O)C[C@@H](NC(=O)c1ccc(S(N)(=O)=O)cc1)C(=O)OC [3i, Dimethyl (4-Sulfamoylbenzoyl)-D-Aspartate] | 6950 | 744 | 6.1 | 910 | 75.7 | 0.7
CCOC(=O)CCCNC(=O)c1ccc(S(N)(=O)=O)cc1 [3k, Ethyl 4-(4-Sulfamoylbenzamido)Butanoate] | 6690 | 756 | 4 | 953 | 5.3 | 0.4
COC(=O)[C@H](Cc1ccccc1)NC(=O)c1ccc(S(N)(=O)=O)cc1 [3l, Methyl (4-Sulfamoylbenzoyl)-L-Phenylalaninate] | 517 | 409 | 3.3 | 663 | 5.6 | 0.5
